The subject of the test is Nitzschia inconspicua. The experiment in a line: Cultivation of Nitzschia inconspicua in an open raceway pond at high silica loading, lipid content of harvested slurry. The test is classed as cell-based. On the procedure: Nitzschia inconspicua was cultivated at pH 9.6 with a silica loading of 10-11 mM in an open raceway pond for 20 days. Silica was added to the culture at a concentration of 1-3 mM each day to maintain the 10-11 mM silica loading as the algae grew and the batch volume increased. The silica loading was reduced to below 5 mM by diluting the culture without adding silica. The third day after reducing the silica loading, the loading was 2 mM. The algae slurry was harvested on the third day and analyzed for lipid content. The lipid content was 47% of the ash-free dry weight of the biomass. This is a substantial increase in lipid content compared to the typical 5-10% lipid content when the algae is grown in standard media with silica concentrations below 500 μM.

On to `O=[Si]=O` [silica], for which, under “algae grown in standard media with silica concentrations below 500 μM”, the typical lipid content is reported as 5-10%. For the setting “pH 9.6, silica loading 10-11 mM for 20 days, then reduced to below 5 mM, loading 2 mM at harvest on the third day”, the lipid content is 47 % of the ash-free dry weight of the biomass.

Source of the values: patent publication US20240409880A1, “METHODS FOR INCREASING ALGAE PRODUCTIVITY USING HIGH SILICA CONCENTRATIONS” (Global Algae Technology, LLC, priority 2023, published 2024).
